Assay results: the NIST ThermoML archive (doi:10.1021/je030226s)
± gives the expanded uncertainty stated by the source.

Key:
[1] = refractive index (Na D-line) (dimensionless); details: 101.33 kPa, Liquid
[2] = 101.32 kPa, Liquid

Work on CCCCCl [1-chlorobutane] yielded a refractive index ([1]; 288.15 K) of 1.4045 ± 0.0006, a refractive index ([1]; 298.15 K) of 1.3993 ± 0.0006 and a refractive index ([1]; 308.15 K) of 1.3941 ± 0.0006. The mass density ([2]; 288.15 K) was 892.2 ± 0.6 kg/m3, the viscosity ([2]; 288.15 K) was 0.472 ± 0.009 mPa·s and the mass density ([2]; 298.15 K) was 881 ± 0.7 kg/m3. The viscosity ([2]; 298.15 K) was 0.423 ± 0.008 mPa·s, the mass density ([2]; 308.15 K) was 869.7 ± 0.7 kg/m3 and the viscosity ([2]; 308.15 K) was 0.382 ± 0.008 mPa·s.
CCCCO [butan-1-ol] gave a refractive index ([1]; 288.15 K) of 1.401 ± 0.0006, a refractive index ([1]; 298.15 K) of 1.3972 ± 0.0006 and a refractive index ([1]; 308.15 K) of 1.3932 ± 0.0006. The mass density ([2]; 288.15 K) was 813.5 ± 0.9 kg/m3, the viscosity ([2]; 288.15 K) was 3.394 ± 0.039 mPa·s and the mass density ([2]; 298.15 K) was 805.9 ± 0.9 kg/m3. It also gave a viscosity ([2]; 298.15 K) of 2.598 ± 0.03 mPa·s, a mass density ([2]; 308.15 K) of 798.2 ± 0.9 kg/m3 and a viscosity ([2]; 308.15 K) of 2.019 ± 0.024 mPa·s.
With CCO [ethanol] the refractive index ([1]; 288.15 K) was 1.363 ± 0.0006, the refractive index ([1]; 298.15 K) was 1.3591 ± 0.0006 and the refractive index ([1]; 308.15 K) was 1.355 ± 0.0006. For the same compound, the mass density ([2]; 288.15 K) was 793.8 ± 0.9 kg/m3, the viscosity ([2]; 288.15 K) was 1.317 ± 0.016 mPa·s and the mass density ([2]; 298.15 K) was 785.2 ± 0.9 kg/m3. It also gave a viscosity ([2]; 298.15 K) of 1.085 ± 0.014 mPa·s, a mass density ([2]; 308.15 K) of 776.6 ± 1 kg/m3 and a viscosity ([2]; 308.15 K) of 0.902 ± 0.012 mPa·s.
Work on CO [methanol] yielded a refractive index ([1]; 288.15 K) of 1.3303 ± 0.0006, a refractive index ([1]; 298.15 K) of 1.3275 ± 0.0006 and a refractive index ([1]; 308.15 K) of 1.3254 ± 0.0006. For the same compound, the mass density ([2]; 288.15 K) was 796.1 ± 0.9 kg/m3, the viscosity ([2]; 288.15 K) was 0.627 ± 0.01 mPa·s and the mass density ([2]; 298.15 K) was 786.6 ± 0.9 kg/m3. For the same compound, the viscosity ([2]; 298.15 K) was 0.543 ± 0.009 mPa·s, the mass density ([2]; 308.15 K) was 777.2 ± 1 kg/m3 and the viscosity ([2]; 308.15 K) was 0.473 ± 0.009 mPa·s.
With CCCO [propan-1-ol] the refractive index ([1]; 288.15 K) was 1.3869 ± 0.0006, the refractive index ([1]; 298.15 K) was 1.3829 ± 0.0006 and the refractive index ([1]; 308.15 K) was 1.3789 ± 0.0006. The mass density ([2]; 288.15 K) was 807.6 ± 0.9 kg/m3, the viscosity ([2]; 288.15 K) was 2.504 ± 0.029 mPa·s and the mass density ([2]; 298.15 K) was 799.6 ± 0.9 kg/m3. For the same compound, the viscosity ([2]; 298.15 K) was 1.958 ± 0.023 mPa·s, the mass density ([2]; 308.15 K) was 791.5 ± 0.9 kg/m3 and the viscosity ([2]; 308.15 K) was 1.548 ± 0.019 mPa·s.
